“And” between values parts separate entries of the source, which are not always exact repeats. Equal values may be shown once.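 Each compound was tested at five concentrations against cells in 96-well plates for 48 hours. GI50: concentration for 50% inhibition of growth. TGI: concentration producing complete growth inhibition.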
Tests used:
Assay in all cases: DTP human tumour cell line panel, 48 h
[1] = system: 786-0 renal
[2] = system: A498 renal
[3] = system: A549 NSCLC
[4] = system: ACHN renal
[5] = system: BT-549 breast
[6] = system: CAKI-1 renal
[7] = system: CCRF-CEM leukemia
[8] = system: COLO 205 colon
[9] = system: DU-145 prostate
[10] = system: EKVX NSCLC
[11] = system: HCC-2998 colon
[12] = system: HCT-116 colon
[13] = system: HCT-15 colon
[14] = system: HL-60(TB) leukemia
[15] = system: HOP-62 NSCLC
[16] = system: HOP-92 NSCLC
[17] = system: HS 578T breast
[18] = system: HT29 colon
[19] = system: IGROV1 ovarian
[20] = system: K-562 leukemia
[21] = system: KM12 colon
[22] = system: LOX IMVI melanoma
[23] = system: M14 melanoma
[24] = system: MALME-3M melanoma
[25] = system: MCF7 breast
[26] = system: MDA-MB-231 breast
[27] = system: MDA-MB-435
[28] = system: MOLT-4 leukemia
[29] = system: NCI-H226 lung
[30] = system: NCI-H23 lung
[31] = system: NCI-H460 lung
[32] = system: NCI-H522 lung
[33] = system: NCI/ADR-RES ovarian
[34] = system: OVCAR-3 ovarian
[35] = system: OVCAR-4 ovarian
[36] = system: OVCAR-5 ovarian
[37] = system: OVCAR-8 ovarian
[38] = system: PC-3 prostate
[39] = system: RPMI-8226 leukemia
[40] = system: RXF 393 renal
[41] = system: SF-268 CNS
[42] = system: SF-295 CNS
[43] = system: SF-539 CNS
[44] = system: SK-MEL-2 melanoma
[45] = system: SK-MEL-28 melanoma
[46] = system: SK-MEL-5 melanoma
[47] = system: SK-OV-3 ovarian
[48] = system: SN12C renal
[49] = system: SNB-19 CNS
[50] = system: SNB-75 CNS
[51] = system: SR leukemia
[52] = system: SW-620 colon
[53] = system: T-47D breast
[54] = system: TK-10 renal
[55] = system: U251 CNS
[56] = system: UACC-257 melanoma
[57] = system: UACC-62 melanoma
[58] = system: UO-31 renal

In the case of `CN1CCN(Cc2ccc(NC(=O)c3cncc(C#Cc4cnc5ccc(NC6CCOCC6)nn45)c3)cc2C(F)(F)F)CC1`, the GI50 [1] was 202 nM and 90 nM, the TGI [1] was 742 nM and 355 nM and the GI50 [2] was 161 nM and 214 nM. For the same molecule, the TGI [2] was 425 nM and 366 nM, the GI50 [3] was 84.1 nM and 74.8 nM and the TGI [3] was 459 nM and 671 nM. The GI50 [4] was 161 nM and 155 nM, the TGI [4] was 736 nM and 965 nM and the GI50 [5] was 120 nM and 275 nM. The TGI [5] was 770 nM and 860 nM, the GI50 [6] was 98.7 nM and 39.5 nM and the GI50 [7] was 20.5 nM. The GI50 [8] was 24.6 nM and 33.6 nM, the TGI [8] was 90.7 nM and 127 nM and the GI50 [9] was 125 nM and 60.9 nM. The TGI [9] was 2160 nM and 431 nM, the GI50 [10] was 98.8 nM and 102 nM and the TGI [10] was 903 nM and 591 nM. For the same molecule, the GI50 [11] was 226 nM and 189 nM, the TGI [11] was 2460 nM and 519 nM and the GI50 [12] was 71.6 nM and 18.3 nM. For the same molecule, the TGI [12] was 265 nM and 455 nM, the GI50 [13] was 324 nM and 205 nM and the TGI [13] was 5100 nM and 667 nM. For the same molecule, the GI50 [14] was 139 nM and 43.2 nM, the TGI [14] was 384 nM and 336 nM and the GI50 [15] was 59.9 nM and 43.3 nM. The TGI [15] was 507 nM and 300 nM, the GI50 [16] was 36.7 nM and 15.6 nM and the TGI [16] was 175 nM and 69.4 nM. For the same molecule, the GI50 [17] was 54.2 nM and 31.7 nM, the TGI [17] was 368 nM and 335 nM and the GI50 [18] was 115 nM and 70.4 nM. For the same molecule, the TGI [18] was 506 nM and 501 nM, the GI50 [19] was 84.7 nM and 20.8 nM and the TGI [19] was 321 nM and 212 nM. The GI50 [20] was 5 nM, the TGI [20] was 741 nM and 108 nM and the GI50 [21] was 5 nM. The TGI [21] was 667 nM and 389 nM, the GI50 [22] was 55.5 nM and 24.8 nM and the TGI [22] was 140 nM and 172 nM. For the same molecule, the GI50 [23] was 66.4 nM and 49.4 nM, the TGI [23] was 156 nM and 200 nM and the GI50 [24] was 99.6 nM and 78 nM. The TGI [24] was 588 nM and 246 nM, the GI50 [25] was 41.5 nM and the TGI [25] was 543 nM and 377 nM. The GI50 [26] was 48.2 nM and 19.6 nM, the TGI [26] was 219 nM and 241 nM and the GI50 [27] was 119 nM and 63 nM. For the same molecule, the TGI [27] was 761 nM and 268 nM, the GI50 [28] was 42 nM and the TGI [28] was 1140 nM and 612 nM. The GI50 [29] was 67.5 nM, the TGI [29] was 5790 nM and the GI50 [30] was 114 nM. For the same molecule, the TGI [30] was 529 nM, the GI50 [31] was 62.7 nM and 33.9 nM and the TGI [31] was 837 nM and 197 nM. The GI50 [32] was 42.3 nM and 20.2 nM, the TGI [32] was 116 nM and 137 nM and the GI50 [33] was 2640 nM and 1670 nM. The TGI [33] was 10900 nM and 4620 nM, the GI50 [34] was 135 nM and 70.3 nM and the TGI [34] was 752 nM and 300 nM. The GI50 [35] was 157 nM and 102 nM, the TGI [35] was 5950 nM and 733 nM and the GI50 [36] was 125 nM and 149 nM. The TGI [36] was 752 nM and 773 nM, the GI50 [37] was 107 nM and 65.2 nM and the TGI [37] was 645 nM and 495 nM. For the same molecule, the GI50 [38] was 108 nM and 114 nM, the TGI [38] was 5340 nM and 1160 nM and the GI50 [39] was 136 nM and 123 nM. The TGI [39] was 434 nM and 456 nM, the GI50 [40] was 58.9 nM and 39.5 nM and the TGI [40] was 174 nM and 180 nM. For the same molecule, the GI50 [41] was 74.3 nM and 42.9 nM, the TGI [41] was 930 nM and 293 nM and the GI50 [42] was 63.2 nM and 208 nM. For the same molecule, the TGI [42] was 3810 nM and 812 nM, the GI50 [43] was 17.6 nM and 17.5 nM and the TGI [43] was 83.2 nM and 112 nM. For the same molecule, the GI50 [44] was 95.1 nM and 111 nM, the TGI [44] was 197 nM and 246 nM and the GI50 [45] was 179 nM and 155 nM. For the same molecule, the TGI [45] was 986 nM and 344 nM, the GI50 [46] was 296 nM and 158 nM and the TGI [46] was 1030 nM and 312 nM. The GI50 [47] was 116 nM, the TGI [47] was 439 nM and the GI50 [48] was 24.1 nM and 21.5 nM. The TGI [48] was 804 nM and 549 nM, the GI50 [49] was 137 nM and 174 nM and the TGI [49] was 4370 nM and 882 nM. The GI50 [50] was 67.8 nM, the TGI [50] was 198 nM and 22.4 nM and the GI50 [51] was 35.5 nM. The TGI [51] was 506 nM and 351 nM, the GI50 [52] was 76.6 nM and 21.3 nM and the TGI [52] was 1640 nM and 167 nM. The GI50 [53] was 165 nM and 167 nM, the TGI [53] was 1480 nM and 973 nM and the GI50 [54] was 156 nM. The TGI [54] was 759 nM, the GI50 [55] was 125 nM and 134 nM and the TGI [55] was 610 nM and 349 nM. The GI50 [56] was 203 nM and 191 nM, the TGI [56] was 1420 nM and 614 nM and the GI50 [57] was 120 nM and 145 nM. For the same molecule, the TGI [57] was 685 nM and 323 nM, the GI50 [58] was 584 nM and 235 nM and the TGI [58] was 3050 nM and 749 nM.
Molecule `c1ccc(-c2c(-c3ccccc3)[n+](Cc3ccc4ccccc4c3)c(-c3ccccc3)n2Cc2ccc3ccccc3c2)cc1` has a GI50 [1] of 352 nM, a TGI [1] of 1860 nM and a GI50 [4] of 401 nM. For the same molecule, the TGI [4] was 1390 nM, the GI50 [7] was 241 nM and the TGI [7] was 1240 nM. It also gave a GI50 [9] of 365 nM, a TGI [9] of 1430 nM and a GI50 [14] of 150 nM. The TGI [14] was 400 nM, the GI50 [16] was 158 nM and the TGI [16] was 592 nM. It also gave a GI50 [17] of 370 nM, a TGI [17] of 1830 nM and a GI50 [20] of 181 nM. It also gave a TGI [20] of 1230 nM, a GI50 [28] of 285 nM and a TGI [28] of 1130 nM. The GI50 [30] was 224 nM, the TGI [30] was 727 nM and the GI50 [38] was 200 nM. The TGI [38] was 862 nM, the GI50 [39] was 56.8 nM and the TGI [39] was 505 nM. For the same molecule, the GI50 [52] was 326 nM, the TGI [52] was 1380 nM and the GI50 [58] was 672 nM. It also gave a TGI [58] of 2940 nM.

Source: PubChem BioAssay (NCI)
